Holding throughout (format): biochemical
One experiment deals with HDAC1 (Homo sapiens, UniProt Q13547). The experiment in a line: HDAC1 isozyme inhibition. The conditions noted are these: for SI HDAC1/6: selectivity index.
In a further experiment the target is HDAC2 (Homo sapiens, UniProt Q92769). The experiment in a line: HDAC2 isozyme inhibition. As to conditions: for SI HDAC2/6: selectivity index.
The next experiment concerns the target HDAC3 (Homo sapiens, UniProt O15379). Put plainly: HDAC3 isozyme inhibition. The conditions noted are these: for SI HDAC3/6: selectivity index.
A further experiment deals with T1, HDAC6 (Homo sapiens, UniProt Q9UBN7).
T1 sequence (Q9UBN7 1-1215): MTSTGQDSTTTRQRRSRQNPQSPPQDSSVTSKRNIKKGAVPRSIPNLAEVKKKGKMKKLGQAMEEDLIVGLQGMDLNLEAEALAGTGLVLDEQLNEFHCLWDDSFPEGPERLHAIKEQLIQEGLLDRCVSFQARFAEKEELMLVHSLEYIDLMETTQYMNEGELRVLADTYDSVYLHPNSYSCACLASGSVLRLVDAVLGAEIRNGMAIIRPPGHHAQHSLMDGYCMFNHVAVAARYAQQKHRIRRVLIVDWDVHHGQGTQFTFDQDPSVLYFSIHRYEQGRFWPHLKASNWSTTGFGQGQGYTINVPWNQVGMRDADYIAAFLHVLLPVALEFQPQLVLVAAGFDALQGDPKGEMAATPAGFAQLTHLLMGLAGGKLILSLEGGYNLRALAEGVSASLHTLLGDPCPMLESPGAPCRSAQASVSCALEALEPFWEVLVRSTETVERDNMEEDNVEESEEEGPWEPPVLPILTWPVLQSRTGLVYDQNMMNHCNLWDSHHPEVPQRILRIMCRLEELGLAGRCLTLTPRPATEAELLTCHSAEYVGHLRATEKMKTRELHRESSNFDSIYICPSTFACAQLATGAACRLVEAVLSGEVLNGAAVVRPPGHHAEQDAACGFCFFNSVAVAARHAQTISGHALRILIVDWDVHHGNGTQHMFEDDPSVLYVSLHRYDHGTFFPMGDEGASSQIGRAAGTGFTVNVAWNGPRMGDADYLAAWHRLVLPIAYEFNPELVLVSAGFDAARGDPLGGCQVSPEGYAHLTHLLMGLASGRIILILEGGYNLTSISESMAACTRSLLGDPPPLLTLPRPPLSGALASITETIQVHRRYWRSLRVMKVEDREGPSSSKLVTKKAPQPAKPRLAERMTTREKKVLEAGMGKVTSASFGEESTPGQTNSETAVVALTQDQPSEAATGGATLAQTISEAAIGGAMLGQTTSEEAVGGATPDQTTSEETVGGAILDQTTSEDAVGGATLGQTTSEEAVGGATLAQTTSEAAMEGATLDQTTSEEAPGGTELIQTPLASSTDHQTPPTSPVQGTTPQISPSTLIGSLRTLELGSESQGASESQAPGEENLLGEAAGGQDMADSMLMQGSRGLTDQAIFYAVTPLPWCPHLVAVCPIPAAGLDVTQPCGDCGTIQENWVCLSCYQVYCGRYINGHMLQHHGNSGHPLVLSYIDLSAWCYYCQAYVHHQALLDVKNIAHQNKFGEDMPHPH
The experiment in a line: HDAC6 isozyme inhibition.

The next experiment concerns the target T2, HDAC10 (Homo sapiens, UniProt Q969S8).
T2 sequence (Q969S8 1-669): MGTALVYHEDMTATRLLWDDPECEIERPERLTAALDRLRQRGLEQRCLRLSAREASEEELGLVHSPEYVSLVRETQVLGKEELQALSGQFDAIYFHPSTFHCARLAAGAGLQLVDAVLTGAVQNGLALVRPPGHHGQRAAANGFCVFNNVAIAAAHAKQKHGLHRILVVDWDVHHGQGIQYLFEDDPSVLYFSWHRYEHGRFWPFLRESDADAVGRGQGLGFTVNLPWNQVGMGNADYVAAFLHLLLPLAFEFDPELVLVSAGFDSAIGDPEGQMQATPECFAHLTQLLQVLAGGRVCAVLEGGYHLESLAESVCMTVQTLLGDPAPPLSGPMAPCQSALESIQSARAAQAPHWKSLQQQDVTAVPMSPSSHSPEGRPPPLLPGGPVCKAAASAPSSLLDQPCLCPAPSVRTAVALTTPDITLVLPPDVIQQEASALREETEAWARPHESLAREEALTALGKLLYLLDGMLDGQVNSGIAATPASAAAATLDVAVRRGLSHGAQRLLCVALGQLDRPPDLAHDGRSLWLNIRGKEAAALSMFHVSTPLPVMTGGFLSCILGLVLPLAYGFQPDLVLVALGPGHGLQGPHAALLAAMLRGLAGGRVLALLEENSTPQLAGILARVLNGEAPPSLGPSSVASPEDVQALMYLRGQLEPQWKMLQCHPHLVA
The experiment in a line: HDAC10 isozyme inhibition. As to conditions: for SI HDAC10/6: selectivity index.

Where [1] appears, read: read-out: HDAC Isoform, IC50, Class I, 1, singlet, 10-dose IC50 mode, 3-fold serial dilution starting at 30 μM, >50000 = no inhibition at 50 μM.
[2] abbreviates: read-out: HDAC Isoform, IC50, Class I, 2, singlet, 10-dose IC50 mode, 3-fold serial dilution starting at 30 μM, >50000 = no inhibition at 50 μM.
[3] abbreviates: read-out: HDAC Isoform, IC50, Class I, 3, singlet, 10-dose IC50 mode, 3-fold serial dilution starting at 30 μM, >50000 = no inhibition at 50 μM.
[4] abbreviates: read-out: HDAC Isoform, IC50, Class II, 6, duplicate, 10-dose IC50 mode, 3-fold serial dilution starting at 30 μM, average ± standard deviation.
The mark [5] stands for this setting: read-out: HDAC Isoform, IC50, Class II, 10, singlet, 10-dose IC50 mode, 3-fold serial dilution starting at 30 μM, >50000 = no inhibition at 50 μM.

The record followed here is publication PMC4818591 (ChemMedChem, 2015).

Where two headings read alike, the source gives them in different places. Some results are limits rather than exact numbers.

HDAC3, sequence (O15379 whole entry): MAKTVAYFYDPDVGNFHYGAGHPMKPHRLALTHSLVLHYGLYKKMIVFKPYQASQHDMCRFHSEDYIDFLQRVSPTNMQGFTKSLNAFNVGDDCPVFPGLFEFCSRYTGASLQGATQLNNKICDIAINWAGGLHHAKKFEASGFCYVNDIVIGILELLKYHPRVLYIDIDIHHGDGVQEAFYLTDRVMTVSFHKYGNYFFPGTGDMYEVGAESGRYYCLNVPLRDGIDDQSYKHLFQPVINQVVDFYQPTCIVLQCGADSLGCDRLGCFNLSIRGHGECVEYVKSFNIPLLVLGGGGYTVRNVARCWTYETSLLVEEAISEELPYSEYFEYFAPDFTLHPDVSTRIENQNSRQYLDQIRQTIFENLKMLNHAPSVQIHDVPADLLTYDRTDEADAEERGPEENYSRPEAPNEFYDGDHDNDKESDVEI
HDAC3, sequence (Q9Y618 395-489 partner limits assumed): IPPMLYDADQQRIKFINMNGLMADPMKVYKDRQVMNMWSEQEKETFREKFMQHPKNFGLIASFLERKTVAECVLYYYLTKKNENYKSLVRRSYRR
HDAC1, sequence (Q13547 whole entry): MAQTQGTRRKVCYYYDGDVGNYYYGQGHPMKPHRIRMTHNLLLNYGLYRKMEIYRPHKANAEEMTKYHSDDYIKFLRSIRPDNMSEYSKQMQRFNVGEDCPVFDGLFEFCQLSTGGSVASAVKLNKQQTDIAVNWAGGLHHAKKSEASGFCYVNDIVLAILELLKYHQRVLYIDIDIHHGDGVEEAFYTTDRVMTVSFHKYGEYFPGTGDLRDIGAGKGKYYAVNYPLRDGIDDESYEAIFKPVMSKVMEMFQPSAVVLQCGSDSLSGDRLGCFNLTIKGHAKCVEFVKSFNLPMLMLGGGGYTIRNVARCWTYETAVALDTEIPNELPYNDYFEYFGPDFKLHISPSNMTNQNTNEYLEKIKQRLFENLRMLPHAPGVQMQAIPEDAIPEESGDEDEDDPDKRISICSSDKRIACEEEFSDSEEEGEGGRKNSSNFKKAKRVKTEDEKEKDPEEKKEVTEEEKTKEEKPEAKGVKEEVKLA
HDAC2, sequence (Q92769 whole entry): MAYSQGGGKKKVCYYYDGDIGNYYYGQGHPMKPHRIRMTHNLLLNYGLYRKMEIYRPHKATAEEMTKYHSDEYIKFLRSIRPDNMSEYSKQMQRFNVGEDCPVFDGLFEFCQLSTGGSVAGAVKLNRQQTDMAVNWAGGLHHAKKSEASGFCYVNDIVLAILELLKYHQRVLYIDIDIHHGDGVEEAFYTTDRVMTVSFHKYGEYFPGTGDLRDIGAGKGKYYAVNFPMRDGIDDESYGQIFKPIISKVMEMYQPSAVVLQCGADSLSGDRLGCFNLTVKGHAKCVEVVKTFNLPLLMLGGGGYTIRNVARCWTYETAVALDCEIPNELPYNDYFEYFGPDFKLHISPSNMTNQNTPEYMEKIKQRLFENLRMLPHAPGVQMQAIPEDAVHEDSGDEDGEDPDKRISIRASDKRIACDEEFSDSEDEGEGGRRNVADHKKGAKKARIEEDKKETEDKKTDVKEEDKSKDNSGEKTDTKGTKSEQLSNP

For the compound `O=C(NO)c1cc(Cn2c3ccccc3c3ccccc32)on1` [Compound 17, 5-(Carbazol-9-ylmethyl)isoxazole-3-carbohydroxamic Acid], the half-maximal inhibitory concentration (IC50) against HDAC1 is 38.7 µM; at HDAC2, over 50 µM; against HDAC3, 44 µM; on HDAC6, 1.51 ± 0.065 µM; at HDAC10 it was over 50 µM. In addition, the “SI HDAC1/6” value on HDAC1 came out at 26. In addition, the “SI HDAC3/6” value at HDAC3 was 29.
As for `CC(C)(C)C(=O)Nc1cccc(-c2cc(C(=O)NCCc3cc(C(=O)NO)no3)no2)c1` [Compound 10, 5-[2-[[5-[3-[(2,2-Dimethylpropionyl)amino]phenyl]isoxazole-3-carbonyl]amino]ethyl]isoxazole-3-carbohydroxyamic Acid], the IC50 is over 50 µM on HDAC1 (setting [1]); over 50 µM at HDAC2 (setting [2]); over 50 µM on HDAC3 (setting [3]); 0.0212 ± 0.0009 µM on HDAC6 (setting [4]); 40.1 µM at HDAC10 (setting [5]). Besides, the “selectivity index (SI)” value at HDAC6 (HDAC6 over the other isoforms tested) was “at least 1900”. The “SI HDAC10/6” value on HDAC10 turned out to be 1910.
Regarding `CCOC(=O)Nc1cccc(-c2csc(NC(=O)CCc3cc(C(=O)NO)no3)n2)c1` [Compound 5, N-[3-[2-[3-[3-(N-Hydroxycarbamoyl)isoxazol-5-yl]propionylamino]thiazol-4-yl]phenyl]carbamic Acid Ethyl Ester], the “SI HDAC1/6” value at HDAC1 is 80. Also, the “SI HDAC2/6” value on HDAC2 was found to be 333. Also, the “SI HDAC3/6” value on HDAC3 came to 32. The “SI HDAC10/6” value at HDAC10 is given as 82.
Consider `CC(C)(C)OC(=O)Nc1ccc(-c2cc(C(=O)NCCc3cc(C(=O)NO)no3)no2)cc1` [Compound 6, N-[4-[3-[N-[2-[3-(N-Hydroxycarbamoyl)isoxazol-5-yl]ethyl]carbamoyl]isoxazol-5-yl]phenyl]carbamic Acid tert-Butyl Ester], for which the “SI HDAC1/6” value at HDAC1 is given as 2817. For the same compound, the half-maximal inhibitory concentration (IC50) at HDAC2 (setting [2]) and on HDAC10 (setting [5]) was over 50 µM in each case. The “SI HDAC3/6” value at HDAC3 was determined as 3800. Also, at HDAC6 (Table S1 in the supporting information (not available)), the “selectivity for HDAC6 over all other isoforms” value is “highly selective”.
For `CC(C)(C)OC(=O)Nc1ccc(-c2csc(NC(=O)CCCc3cc(C(=O)NO)no3)n2)cc1` [Compound 3, N-[4-[2-[4-[3-(N-Hydroxycarbamoyl)isoxazol-5-yl]butyrylamino]thiazol-4-yl]phenyl]carbamic Acid tert-Butyl Ester], the “SI HDAC1/6” value at HDAC1 is on record as 10. Moreover, on HDAC2, the “SI HDAC2/6” value came to 28. Also, the “SI HDAC3/6” value at HDAC3 came to 11.
Consider `O=C(NO)c1cc(CCNC(=O)c2cc(-c3cccc(NC(=O)C4CCCCC4)c3)on2)on1` [Compound 11, 5-[3-[(Cyclohexanecarbonyl)amino]phenyl]-N-[2-[3-(N-hydroxycarbamoyl)isoxazol-5-yl]ethyl]isoxazole-3-carboxamide], for which the half-maximal inhibitory concentration (IC50) at HDAC1, at HDAC2, at HDAC3 and against HDAC10 was over 50 µM throughout.
As to `CC(C)(C)OC(=O)Nc1cccc(-c2cc(C(=O)NCCc3cc(C(=O)NO)no3)no2)c1` [Compound 7], the IC50 on HDAC1 (setting [1]) was over 50 µM; at HDAC2 (setting [2]), over 50 µM; on HDAC3 (setting [3]) it was over 50 µM; at HDAC6 (setting [4]), 0.0077 ± 0.0008 µM; at HDAC10 (setting [5]) it was over 50 µM.
For `O=C(NO)c1ccc(CNC(=O)c2cc(-c3cccc(NC(=O)C4CCCCC4)c3)on2)cc1` [Compound 16, 5-[3-[(Cyclohexanecarbonyl)amino]phenyl]-N-[4-(N-hydroxycarbamoyl)benzyl]isoxazole-3-carboxamide], at HDAC1, the “SI HDAC1/6” value is 82. Besides, on HDAC2, the “SI HDAC2/6” value came to 1650. Besides, on HDAC3, the “SI HDAC3/6” value is given as 257. The “SI HDAC10/6” value at HDAC10 came out at 73.
In the same order, the values of `CCOC(=O)Nc1ccc(-c2cc(C(=O)NCCc3cc(C(=O)NO)no3)no2)cc1` [Compound 8, N-[4-[3-[N-[2-[3-(N-Hydroxycarbamoyl)isoxazol-5-yl]ethyl]carbamoyl]isoxazol-5-yl]phenyl]carbamic Acid Ethyl Ester] are 39, 409, 51 and 123.
As to `O=C(Nc1cccc(-c2cc(C(=O)NCCc3cc(C(=O)NO)no3)no2)c1)c1ccccc1` [Compound 12, 5-[3-(Benzoylamino)phenyl]-N-[2-[3-(N-hydroxycarbamoyl)isoxazol-5-yl]ethyl]isoxazole-3-carboxamide], the “SI HDAC1/6” value on HDAC1 stood at 666. For the same compound, the “SI HDAC2/6” value on HDAC2 stood at 2360. The “SI HDAC3/6” value on HDAC3 is given as 1600. In addition, the “SI HDAC10/6” value at HDAC10 was 1050.
Regarding `CC(C)(C)OC(=O)Nc1ccc(-c2cc(C(=O)NCc3ccc(C(=O)NO)cc3)no2)cc1` [Compound 13, N-[4-[3-[N-[4-(N-Hydroxycarbamoyl)benzyl]carbamoyl]isoxazol-5-yl]phenyl]carbamic Acid tert-Butyl Ester], the “SI HDAC1/6” value at HDAC1 is 1320. In addition, the “SI HDAC2/6” value on HDAC2 was 5760. For the same compound, the “SI HDAC3/6” value at HDAC3 is given as 409. At HDAC6 (HDAC6 versus HDAC1 and HDAC3), the “selectivity over HDAC1 and HDAC3” value was “at least 400 fold”. For the same compound, the “selectivity over HDAC2 and HDAC10” value at HDAC6 (HDAC6 versus HDAC2 and HDAC10) is recorded as “more than 3 orders of magnitude”. Moreover, on HDAC10, the “SI HDAC10/6” value was 9580.
Regarding `O=C(NO)c1ccc(CNC(=O)c2cc(Cn3c4ccccc4c4ccccc43)on2)cc1` [Compound 18, 5-(9H-Carbazol-9-ylmethyl)-N-[4-(hydroxycarbamoyl)benzyl]isoxazole-3-carboxamide], the “SI HDAC1/6” value on HDAC1 is 825. The “SI HDAC2/6” value on HDAC2 is 2280. Moreover, at HDAC3, the “SI HDAC3/6” value amounted to 798. Moreover, on HDAC10, the “SI HDAC10/6” value was found to be 37000.
On to `O=C(NO)c1ccc(CNC(=O)c2cc(-c3ccc(NC(=O)C4CCCCC4)cc3)on2)cc1` [Compound 15, 5-[4-[(Cyclohexanecarbonyl)amino]phenyl]-N-[4-(N-hydroxycarbamoyl)benzyl]isoxazole-3-carboxamide], for which the “SI HDAC1/6” value on HDAC1 worked out at 65. The “SI HDAC2/6” value on HDAC2 is given as 461. Besides, the “SI HDAC3/6” value at HDAC3 is reported as 40. In addition, the “SI HDAC10/6” value at HDAC10 was 38.
`Nc1cccc(-c2cc(C(=O)NCCc3cc(C(=O)NO)no3)no2)c1` [Compound 9, 5-(3-Aminophenyl)-N-[2-[3-(N-hydroxycarbamoyl)isoxazol-5-yl]ethyl]isoxazole-3-carboxamide]: on HDAC1, the “SI HDAC1/6” value came to 398. In addition, at HDAC2, the “SI HDAC2/6” value is 140. Also, the “SI HDAC3/6” value on HDAC3 amounted to 105. Also, the “SI HDAC10/6” value at HDAC10 was determined as 315.
